Some results are limits rather than exact numbers.

The target in this experiment is T1, IL-17A/A (Homo sapiens, UniProt Q16552).
T1 construct: purchased Genscript Z03228
T1 sequence (Q16552 24-155): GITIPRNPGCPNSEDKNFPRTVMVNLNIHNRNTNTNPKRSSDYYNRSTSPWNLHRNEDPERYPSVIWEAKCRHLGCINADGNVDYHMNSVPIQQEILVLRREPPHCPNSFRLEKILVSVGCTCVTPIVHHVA
The experiment is described as follows: IL-17A/A HEK-Blue Cell Assay. The class given is cell-based. The conditions noted are these: HEK-Blue IL-17A reporter cell line, SEAP readout at A630, 20 hours incubation with IL-17A/A; top concentration 10 uM, 1 uM or 0.3 uM; read-out: IL-17A/A inhibition (pIC50) (converted).
As to `CC(C)NC(=O)N[C@@H](C(=O)N1CCN(C)CC1)[C@@H](C)c1ccc(NC(=O)[C@@H](NC(=O)c2ccnn2C(C)C)C2CCCCCC2)c(F)c1` [Compound 328], the IC50 is 10 to 100 nM.

Turning to `CC(C)n1nccc1C(=O)N[C@H](C(=O)Nc1ccc([C@H](C)[C@@H](NC(=O)c2ccnn2CC2CC2)C(=O)N2CCN(C)CC2)cc1F)[C@H]1CC[C@H](C)CC1` [Compound 329], the IC50 was less than 10 nM. Then `CC(C)n1nccc1C(=O)N[C@@H](C(=O)N1CCN(C)CC1)[C@@H](C)c1ccc(NC(=O)[C@@H](NC(=O)c2ccnn2C(C)C)[C@H]2CC[C@H](C)CC2)c(F)c1` [Compound 330], with less than 10 nM.

For the compound `COc1ccc(C(F)(F)C(=O)N[C@H](C(=O)Nc2ccc([C@H](C)[C@@H](NC(=O)c3cnns3)C(=O)N3CCN(C)CC3)cc2F)C2CCCCCC2)cn1` [Compound 331], the IC50 was less than 10 nM. The same measure for `CC(C)n1nccc1C(=O)N[C@H](C(=O)Nc1ccc([C@H](C)[C@@H](NC(=O)c2cnns2)C(=O)N2CCN(C)CC2)cc1F)C1CCCCCC1` [Compound 332]: less than 10 nM; for `CC(C)n1nccc1C(=O)N[C@H](C(=O)Nc1ccc([C@H](C)[C@@H](NC(=O)c2cnns2)C(=O)N2CCN(C)CC2)cc1F)[C@H]1CC[C@H](C)CC1` [Compound 333]: less than 10 nM; for `C[C@@H](c1ccc(NC(=O)[C@@H](NC(=O)C(F)(F)c2cncc(C#N)c2)C2CCCCCC2)c(F)c1)[C@@H](NC(=O)c1cnns1)C(=O)N1CCN(C)CC1` [Compound 335]: less than 10 nM. Then `CC1CCC(C(NC(=O)C(F)(F)c2cccc(C#N)c2)C(=O)Nc2ccc(C(C)C(NC(=O)c3cnns3)C(=O)N3CCN(C)CC3)cc2F)CC1` (stereo not shown) [Compound 336], with less than 10 nM; and `CCn1nccc1C(=O)N[C@H](C(=O)Nc1ccc([C@H](C)[C@@H](NC(=O)c2cnns2)C(=O)N2CCN(C)CC2)cc1F)C1CCCCCC1` [Compound 337], with less than 10 nM. With `CCn1nccc1C(=O)N[C@H](C(=O)Nc1ccc([C@H](C)[C@@H](NC(=O)NC2CC2)C(=O)N2CCN(C)CC2)cc1F)C1CCCCCC1` [Compound 338], the IC50 is less than 10 nM. The same measure for `CC(C)n1nccc1C(=O)N[C@H](C(=O)Nc1ccc([C@H](C)[C@@H](NC(=O)NC2CC2)C(=O)N2CCN(C)CC2)cc1F)C1CCCCCC1` [Compound 339]: less than 10 nM.

For the compound `CCn1nccc1C(=O)N[C@H](C(=O)Nc1ccc([C@H](C)[C@@H](NC(=O)CC2CC2)C(=O)N2CCN(C)CC2)cc1F)C1CCCCCC1` [Compound 340], the IC50 was less than 10 nM.

Consider `CCC(=O)N[C@@H](C(=O)N1CCN(Cc2ccccn2)CC1)[C@@H](C)c1ccc(NC(=O)[C@@H](NC(=O)c2ccnn2CC)[C@H]2CC[C@H](C)CC2)c(F)c1` [Compound 341], for which the IC50 was 10 to 100 nM.

For the compound `CCC(=O)N[C@@H](C(=O)N1CCOCC1)[C@@H](C)c1ccc(NC(=O)[C@@H](NC(=O)c2ccnn2CC)[C@H]2CC[C@H](C)CC2)c(F)c1` [Compound 342], the IC50 was 10 to 100 nM. The same measure for `CCC(=O)N[C@@H](C(=O)N1CCC(C)(O)CC1)[C@@H](C)c1ccc(NC(=O)[C@@H](NC(=O)c2ccnn2CC)[C@H]2CC[C@H](C)CC2)c(F)c1` [Compound 343]: 10 to 100 nM. The same measure for `CCC(=O)N[C@@H](C(=O)N[C@@H](C)C1CC1)[C@@H](C)c1ccc(NC(=O)[C@@H](NC(=O)c2ccnn2CC)[C@H]2CC[C@H](C)CC2)c(F)c1` [Compound 344]: 10 to 100 nM; for `CCC(=O)N[C@@H](C(=O)NCC1CCC1)[C@@H](C)c1ccc(NC(=O)[C@@H](NC(=O)c2ccnn2CC)[C@H]2CC[C@H](C)CC2)c(F)c1` [Compound 345]: 10 to 100 nM; for `CCC(=O)N[C@@H](C(=O)NCC1(C)CC1)[C@@H](C)c1ccc(NC(=O)[C@@H](NC(=O)c2ccnn2CC)[C@H]2CC[C@H](C)CC2)c(F)c1` [Compound 346]: 10 to 100 nM. Then `CCC(=O)N[C@@H](C(=O)N1CCN(Cc2ccccn2)CC1)[C@@H](C)c1ccc(NC(=O)[C@@H](NC(=O)c2ccnn2CC)C2CCCCCC2)c(F)c1` [Compound 348], with less than 10 nM; and `CCC(=O)N[C@@H](C(=O)N1CCOCC1)[C@@H](C)c1ccc(NC(=O)[C@@H](NC(=O)C(F)(F)c2cccc(C#N)c2)C2CCCCCC2)c(F)c1` [Compound 349], with less than 10 nM; and `CCC(=O)N[C@@H](C(=O)N1CCC(C)(O)CC1)[C@@H](C)c1ccc(NC(=O)[C@@H](NC(=O)c2ccnn2CC)C2CCCCCC2)c(F)c1` [Compound 350], with less than 10 nM. `CCC(=O)N[C@@H](C(=O)N1CCOCC1)[C@@H](C)c1ccc(NC(=O)[C@@H](NC(=O)c2ccnn2CC)C2CCCCCC2)c(F)c1` [Compound 351]: the IC50 was 10 to 100 nM.

Consider `CCC(=O)N[C@@H](C(=O)N1CCOCC1)[C@@H](C)c1ccc(NC(=O)[C@@H](NC(=O)C(F)(F)c2cccc(C#N)c2)C2CCCCC2)c(F)c1` [Compound 352], for which the IC50 is 10 to 100 nM.

Regarding `CCC(=O)N[C@@H](C(=O)N1CCS(=O)(=O)CC1)[C@@H](C)c1ccc(NC(=O)[C@@H](NC(=O)c2ccnn2CC)C2CCCCCC2)c(F)c1` [Compound 353], the IC50 is 10 to 100 nM. The same measure for `CCC(=O)N[C@@H](C(=O)N1CCS(=O)(=O)CC1)[C@@H](C)c1ccc(NC(=O)[C@@H](NC(=O)C(F)(F)c2cccc(C#N)c2)C2CCCCCC2)c(F)c1` [Compound 354]: less than 10 nM; for `CCC(=O)N[C@@H](C(=O)N1CCC(C)(O)CC1)[C@@H](C)c1ccc(NC(=O)[C@@H](NC(=O)C(F)(F)c2cccc(C#N)c2)C2CCCCCC2)c(F)c1` [Compound 355]: less than 10 nM; for `CCC(=O)N[C@@H](C(=O)N1CC(N(C)C)C1)[C@@H](C)c1ccc(NC(=O)[C@@H](NC(=O)c2ccnn2CC)C2CCCCCC2)c(F)c1` [Compound 356]: 10 to 100 nM. Then `CCC(=O)N[C@@H](C(=O)N1CCC(C)(O)CC1)[C@@H](C)c1ccc(NC(=O)[C@@H](NC(=O)c2conc2CC)C2CCCCCC2)c(F)c1` [Compound 357], with less than 10 nM; and `CCC(=O)N[C@@H](C(=O)N1CCN(CCOC)CC1)[C@@H](C)c1ccc(NC(=O)[C@@H](NC(=O)c2ccnn2CC)C2CCCCC2)c(F)c1` [Compound 358], with 10 to 100 nM. With `CCC(=O)N[C@@H](C(=O)N1CCOCC1)[C@@H](C)c1ccc(NC(=O)[C@@H](NC(=O)c2ccnn2CC)C2CCCCC2)c(F)c1` [Compound 359], the IC50 was 10 to 100 nM. Then `CCC(=O)N[C@@H](C(=O)NC1CCOCC1)[C@@H](C)c1ccc(NC(=O)[C@@H](NC(=O)c2ccnn2CC)C2CCCCC2)c(F)c1` [Compound 360], with 10 to 100 nM. Then `CCC(=O)N[C@@H](C(=O)N1CCS(=O)(=O)CC1)[C@@H](C)c1ccc(NC(=O)[C@@H](NC(=O)c2ccnn2CC)C2CCCCC2)c(F)c1` [Compound 361], with 10 to 100 nM; and `CCC(=O)N[C@@H](C(=O)N1CCN(C(C)C)CC1)[C@@H](C)c1ccc(NC(=O)[C@@H](NC(=O)c2ccnn2CC)C2CCCCC2)c(F)c1` [Compound 362], with 10 to 100 nM. Then `CCC(=O)N[C@@H](C(=O)N1CCN(Cc2ccccn2)CC1)[C@@H](C)c1ccc(NC(=O)[C@@H](NC(=O)C(F)(F)c2cccc(C#N)c2)C2CCCCC2)c(F)c1` [Compound 363], with less than 10 nM; and `CCC(=O)N[C@@H](C(=O)N1CCC(C)(O)CC1)[C@@H](C)c1ccc(NC(=O)[C@@H](NC(=O)C(F)(F)c2cccc(C#N)c2)C2CCCCC2)c(F)c1` [Compound 364], with less than 10 nM; and `CCC(=O)N[C@@H](C(=O)N1CCS(=O)(=O)CC1)[C@@H](C)c1ccc(NC(=O)[C@@H](NC(=O)C(F)(F)c2cccc(C#N)c2)C2CCCCC2)c(F)c1` [Compound 365], with 10 to 100 nM.

Take `CCC(=O)N[C@@H](C(=O)N1CCN(Cc2ccccc2)CC1)[C@@H](C)c1ccc(NC(=O)[C@@H](NC(=O)c2ccnn2CC)C2CCCCC2)c(F)c1` [Compound 366]: the IC50 is less than 10 nM. Take `CCC(=O)NC(C(=O)N1CCN(Cc2ccccc2)CC1)[C@@H](C)c1ccc(NC(=O)[C@@H](NC(=O)c2ccnn2CC)[C@H]2CC[C@H](C)CC2)c(F)c1` (stereo partly shown) [Compound 367]: the IC50 was 10 to 100 nM. On to `CCC(=O)N[C@@H](C(=O)N1CCC(F)(F)CC1)[C@@H](C)c1ccc(NC(=O)[C@@H](NC(=O)c2ccnn2CC)[C@H]2CC[C@H](C)CC2)c(F)c1` [Compound 369], for which the IC50 is 10 to 100 nM. The same measure for `CCC(=O)N[C@@H](C(=O)N1CCC(C)CC1)[C@@H](C)c1ccc(NC(=O)[C@@H](NC(=O)c2ccnn2CC)[C@H]2CC[C@H](C)CC2)c(F)c1` [Compound 370]: 10 to 100 nM; for `CCC(=O)N[C@@H](C(=O)N1CCSCC1)[C@@H](C)c1ccc(NC(=O)[C@@H](NC(=O)c2ccnn2CC)[C@H]2CC[C@H](C)CC2)c(F)c1` [Compound 371]: 10 to 100 nM; for `CCC(=O)N[C@@H](C(=O)N1CCC(Oc2ccccc2)CC1)[C@@H](C)c1ccc(NC(=O)[C@@H](NC(=O)c2ccnn2CC)[C@H]2CC[C@H](C)CC2)c(F)c1` [Compound 372]: 10 to 100 nM. On to `CCC(=O)N[C@@H](C(=O)N1CC2(C1)CC(F)(F)C2)[C@@H](C)c1ccc(NC(=O)[C@@H](NC(=O)c2ccnn2CC)[C@H]2CC[C@H](C)CC2)c(F)c1` [Compound 373], for which the IC50 was 10 to 100 nM.

Take `CCC(=O)N[C@@H](C(=O)N1CCC(O)CC1)[C@@H](C)c1ccc(NC(=O)[C@@H](NC(=O)c2ccnn2CC)[C@H]2CC[C@H](C)CC2)c(F)c1` [Compound 374]: the IC50 was 10 to 100 nM. The same measure for `CCC(=O)N[C@@H](C(=O)N1CCC(C)CC1)[C@@H](C)c1ccc(NC(=O)[C@@H](NC(=O)c2ccnn2C2CCCC2)[C@H]2CC[C@H](C)CC2)c(F)c1` [Compound 375]: 10 to 100 nM; for `CCC(=O)N[C@@H](C(=O)N1CCC(C)(O)CC1)[C@@H](C)c1ccc(NC(=O)[C@@H](NC(=O)C(F)(F)c2nc(C)cs2)[C@H]2CC[C@H](C)CC2)c(F)c1` [Compound 376]: 10 to 100 nM.
